According to paper PMC3758310, “The Human Cathelicidin LL-37 Has Antiviral Activity against Respiratory Syncytial Virus” (PLoS ONE, 2013):

Assays:
RSV-infected HEp-2 cells = experiment: MTT assay of viable metabolically active RSV-infected HEp-2 cells (cytopathic effects); assay type: cell-based; conditions: for viable HEp-2 cells surviving RSV infection at 5 days, pre-treatment condition: simultaneous RSV MOI = 0.005 and LL-37 0–50 µg/ml, scrambled LL-37 50 µg/ml or ribavirin 200 µM for 2 hours, 5 days without treatment; for protection of RSV-infected HEp-2 cells from cell death at 5 days, continuous treatment condition: treatment re-added after wash and present for 5 days, ribavirin 200 µM, LL-37 p<0.01, ribavirin p<0.001 vs untreated infected
Protocol: HEp-2 cells were treated with LL-37, a scrambled control LL-37 at 50 µg/ml or ribavirin (200 µM; Sigma Aldrich), in the presence or absence of simultaneous infection with RSV (MOI = 0.005). Cells were incubated for 2 hours at 37°C, washed and placed in fresh media. In some wells LL-37 or ribavirin was added again at this point (for “continuous treatment”). Cells were cultured at 37°C for 24 hours or 5 days, after which the number of viable metabolically active cells was assessed using an MTT assay (Sigma Aldrich) according to manufacturer's instructions (7.5 mg/ml, 37°C, 4 hours). Resulting formazan was dissolved in dimethylsulfoxide (Sigma Aldrich) and optical density was measured at 450 nm. Alternatively, cells simultaneously treated with or without LL-37 in presence or absence of RSV infection were allowed to dry for 10 minutes before they were fixed and permeabilised using ice-cold acetone/methanol (1∶1) for 10 minutes at 4°C. After a wash with PBS, cells were subjected to TUNEL assay using an In situ cell death kit (Roche Applied Science, UK) according to manufacturer's instructions. Cells were washed three times with PBS and 1 µg/ml DAPI was included in the second wash (3 minutes staining). Cells were examined by fluorescent microscopy, four representative images per well were captured using an EVOS fl imaging system (PEQLAB Ltd) and TUNEL positive and negative cells were quantified using ImageJ (http://rsbweb.nih.gov/ij/index.html).

RSV [1] = experiment: Immunoplaque assay of RSV-infected HEp-2 cells at 24 hours; assay type: cell-based, RSV strain A2; conditions: for reduction in number of infected cells: then 2 hours infection
Protocol: RSV strain A2 (VR-1540) was purchased from ATCC. RSV was propagated in HEp-2 cells by infecting 5×10^6 cells that were allowed to grow on confluent overnight in serum-free VP-SFM media (Gibco) for 2 hours with 0.1 plaque forming units (PFU) followed by removal of inoculum. Cells were then incubated for 24 hours in 10% FCS Gold (PAA Laboratories) supplemented VP-SFM. Cells were then incubated for a further 5 days in 2% FCS Gold supplemented VP-SFM, cells were harvested and supernatant was snap-frozen and stored at −80°C.
An immunoplaque assay (based on) was used to quantify RSV infected cells. Optimisation of the infection protocol was conducted using serial dilutions of RSV to assess the PFU of propagated virus stocks and establish an optimal MOI of 0.005 that allowed reliable counting of individual infected cells (approximately 100–250 per well) in a control infected culture at 24 hours. Peptide treatments were therefore primarily evaluated at RSV MOI = 0.005, however higher MOIs (up to 1) were also tested and similar effects of peptides were observed (data not shown). For experimental assessment of the antiviral effects of peptides, cells were seeded at 2×10^4 per well in 96-well plates and cultured overnight, then washed and infected, in fresh serum-free medium. After 2 hours, inoculum was removed and cells were cultured in fresh medium for 24, 48 or 72 hours before analysis. Peptides were added before, after or concomitantly with RSV infection as described for individual experiments. Monolayers were fixed in absolute methanol/2% hydrogen peroxide solution for 30 minutes and washed twice with PBS. Cells were exposed to monoclonal biotinylated anti-RSV antibody in 5% BSA/PBS for 1 hour (1∶200, AbD Serotec, Kidlington, UK), washed twice with PBS and were incubated with extravidin peroxidase in 5% BSA/PBS for 30 minutes (1∶500, Sigma Aldrich). Cells were stained using 3-amino-ethylcarbazole substrate (Invitrogen/Life technologies) according to manufacturer's instructions for 15 minutes, washed 3 times with PBS and infected RSV positive foci were quantified by light microscopy, counting 3–4 wells per condition. For later timepoint analysis (48 and 72 hours post infection with RSV MOI = 0.0005), fixed and stained monolayers were examined by light microscopy and images were captured using an EVOS fl imaging system (PEQLAB Ltd, UK). Quantification was performed using the ImageJ plugin Treshold_colour to measure the percentage of cells positive for RSV infection. 3 wells were assessed per condition, using 4 random fields of view captured per well. To assess the production of infectious viral particles, supernatants were serially diluted and transferred to fresh HEp-2 monolayers, incubated for 2 hours at 37°C, washed, incubated for a further 24 hours and then assessed by immunoplaque assay.

RSV [2] = experiment: Immunoplaque assay of RSV-infected 16HBE14o- cells at 24 hours; assay type: cell-based, RSV strain A2; conditions: RSV MOI = 0.005, simultaneous peptide and virus 2 hours, washed, n = 3-5
Protocol: (§1) HEp-2 cells (ATCC CCL-23), Vero cells (ATCC CCL-81) and 16HBE14o^- transformed human bronchial epithelial cells (a kind gift from Dieter Gruenert, University of California) were cultured in DMEM/F12 (Gibco/Life Technologies Ltd, Paisley, UK) or RPMI (Gibco) respectively, supplemented with 2 mM L-glutamine (PAA Laboratories, Yeovil, UK) and 10% FCS (Biosera, East Sussex, UK), at 37°C and 5% CO2. 16HBE14o^- cells were cultured on wells previously coated with a basement layer of collagen IV (5 µg/ml), fibronectin (10 µg/ml) and bovine serum albumin (100 µg/ml) (all Sigma Aldrich, Dorset, UK).
(§2) An immunoplaque assay (based on) was used to quantify RSV infected cells. […] Peptide treatments were therefore primarily evaluated at RSV MOI = 0.005, however higher MOIs (up to 1) were also tested and similar effects of peptides were observed (data not shown). […] Cells were stained using 3-amino-ethylcarbazole substrate (Invitrogen/Life technologies) according to manufacturer's instructions for 15 minutes, washed 3 times with PBS and infected RSV positive foci were quantified by light microscopy, counting 3–4 wells per condition. […] Quantification was performed using the ImageJ plugin Treshold_colour to measure the percentage of cells positive for RSV infection. 3 wells were assessed per condition, using 4 random fields of view captured per well. […]

RSV [3] = experiment: Immunoplaque assay of RSV-infected Vero cells (type I interferon deficient) at 24 hours; assay type: cell-based, RSV strain A2; conditions: 25 µg/ml simultaneous with RSV MOI = 0.005 for 2 hours, p<0.001, n = 3-5
Protocol: as §1, §2

HEp-2 cells [4] = experiment: MTT assay of uninfected HEp-2 cells; assay type: cell-based, human; conditions: LL-37 ≤50 µg/ml, 2 hours, washed, n = 3-4
Protocol: (§3) HEp-2 cells were treated with LL-37, a scrambled control LL-37 at 50 µg/ml or ribavirin (200 µM; Sigma Aldrich), in the presence or absence of simultaneous infection with RSV (MOI = 0.005). Cells were incubated for 2 hours at 37°C, washed and placed in fresh media. In some wells LL-37 or ribavirin was added again at this point (for “continuous treatment”). Cells were cultured at 37°C for 24 hours or 5 days, after which the number of viable metabolically active cells was assessed using an MTT assay (Sigma Aldrich) according to manufacturer's instructions (7.5 mg/ml, 37°C, 4 hours). Resulting formazan was dissolved in dimethylsulfoxide (Sigma Aldrich) and optical density was measured at 450 nm. Alternatively, cells simultaneously treated with or without LL-37 in presence or absence of RSV infection were allowed to dry for 10 minutes before they were fixed and permeabilised using ice-cold acetone/methanol (1∶1) for 10 minutes at 4°C. After a wash with PBS, cells were subjected to TUNEL assay using an In situ cell death kit (Roche Applied Science, UK) according to manufacturer's instructions. […] Cells were examined by fluorescent microscopy, four representative images per well were captured using an EVOS fl imaging system (PEQLAB Ltd) and TUNEL positive and negative cells were quantified using ImageJ (http://rsbweb.nih.gov/ij/index.html).

HEp-2 cells [5] = experiment: TUNEL assay of cell death in HEp-2 cells; assay type: cell-based, human; conditions: in the presence or absence of RSV or LL-37, 24 hours after infection; data not shown
Protocol: as §3

RSV viral particles = experiment: Direct viral inactivation assay; assay type: cell-based, RSV strain A2
Protocol: A modified viral inactivation assay was performed. 1 ml RSV (PFU = 2×10^3, equivalent to MOI = 0.05) was mixed with 25 µg/ml LL-37, followed by immediate 10-fold dilution in serum-free medium to reach sub-therapeutic concentrations of LL-37 (2.5 µg/ml) and RSV MOI = 0.005. 25 µg/ml scrambled LL-37 or PBS were used as negative controls. HEp-2 monolayers were infected with this virus/peptide mixture for 2 hours then washed, before cells were cultured in serum-free medium for 24 hours. Fixed monolayers were subjected to immunoplaque assay.

RSV [6] = experiment: Production of new infectious viral particles (supernatant transfer to fresh HEp-2 cells, immunoplaque assay); assay type: cell-based, RSV strain A2
Protocol: (§4) An immunoplaque assay (based on) was used to quantify RSV infected cells. Optimisation of the infection protocol was conducted using serial dilutions of RSV to assess the PFU of propagated virus stocks and establish an optimal MOI of 0.005 that allowed reliable counting of individual infected cells (approximately 100–250 per well) in a control infected culture at 24 hours. Peptide treatments were therefore primarily evaluated at RSV MOI = 0.005, however higher MOIs (up to 1) were also tested and similar effects of peptides were observed (data not shown). […] Cells were stained using 3-amino-ethylcarbazole substrate (Invitrogen/Life technologies) according to manufacturer's instructions for 15 minutes, washed 3 times with PBS and infected RSV positive foci were quantified by light microscopy, counting 3–4 wells per condition. […] Quantification was performed using the ImageJ plugin Treshold_colour to measure the percentage of cells positive for RSV infection. 3 wells were assessed per condition, using 4 random fields of view captured per well. To assess the production of infectious viral particles, supernatants were serially diluted and transferred to fresh HEp-2 monolayers, incubated for 2 hours at 37°C, washed, incubated for a further 24 hours and then assessed by immunoplaque assay.

RSV [7] = experiment: Spread of RSV infection in HEp-2 cultures over 48 and 72 hours (immunoplaque, image analysis); assay type: cell-based, RSV strain A2; conditions: washed, 48 or 72 hours, n = 3
Protocol: as §4

Molecule: NC(=O)c1ncn([C@@H]2O[C@H](CO)[C@@H](O)[C@H]2O)n1 [ribavirin, reference compound]
- viable HEp-2 cells surviving RSV infection at 5 days, pre-treatment condition (RSV-infected HEp-2 cells; washed, n = 3-4): Neither scrambled LL-37 nor the antiviral ribavirin had any direct effect
- protection of RSV-infected HEp-2 cells from cell death at 5 days, continuous treatment condition (RSV-infected HEp-2 cells): significant protection of epithelial cells from cell death

Molecule: LL-37: active form of the sole human cathelicidin hCAP-18; cationic host defence peptide
- decrease in the number of initially infected cells (RSV [1]; 25 µg/ml LL-37, in vitro): approximately 1 log
- antiviral activity against RSV in HEp-2 cells (RSV [1]; 25 µg/ml simultaneous with RSV MOI = 0.005 for 2 hours, 24 hours, p<0.001, n = 3-5): identical significant antiviral activity
- LL-37 concentration giving significant, concentration-dependent reduction in infectivity (number of RSV-infected cells) (RSV [1]; HEp-2, RSV MOI = 0.005, simultaneous peptide and virus 2 hours, washed, 24 hours at 37°C, p<0.05 vs virus alone, mean of n = 3-5): ≥ 10 µg/mL
- antiviral effect, LL-37 treatment delayed until 2 hours after viral infection (Virus first) (RSV [1]; HEp-2, RSV MOI = 0.005 for 2 hours, washed, then 1 hour LL-37, infected cells at 24 hours): loss of the antiviral effect
- reduction in number of infected cells (RSV [1]; HEp-2, RSV preincubated with 25 µg/ml LL-37 for 1 hour at 4°C, 24 hours, p<0.001): approximately 1 log
- reduction in number of infected cells (RSV [1]; HEp-2, RSV preincubated with 25 µg/ml LL-37 for 1 hour at 37°C, 24 hours, p<0.01): approximately 1 log
- antiviral activity of full length and 22-mer partial peptides (number of infected cells) (RSV [1]; HEp-2, simultaneous RSV MOI = 0.005 and peptide at 1, 10 and 25 µg/ml for 2 hours, washed, 24 hours, n = 3): significant antiviral activity
- protection against RSV infection when infection delayed up to 3 hours after LL-37 treatment and cell washing (RSV [1]; HEp-2 pre-treated 25 µg/ml LL-37 1 hour, washed, RSV MOI = 0.005 at 1 or 3 hours, p<0.001, n≥3): significant protection against RSV infection
- protection against RSV infection when infection delayed 24 hours after LL-37 treatment and cell washing (RSV [1]; HEp-2 pre-treated 25 µg/ml LL-37 1 hour, washed, RSV MOI = 0.005 at 24 hours): no protection evident
- RSV infection after pre-incubation of cells with LL-37 and washing (LL-37 first) (RSV [1]; HEp-2 treated with LL-37 1 hour, washed, 2 hour RSV infection MOI = 0.005, 24 hours, p<0.001): significantly less RSV infection
- antiviral effect (number of RSV-infected cells relative to untreated infected cells) (RSV [2]): The same effect was observed
- antiviral activity against RSV in Vero cells (RSV [3]): identical significant antiviral activity
- number of metabolically active RSV-infected HEp-2 cells at 24 hours (RSV-infected HEp-2 cells; LL-37 ≤50 µg/ml, RSV MOI = 0.005, 2 hours, washed, 24 hours, OD 450 nm, n = 3-4): did not have any substantial effect
- viable HEp-2 cells surviving RSV infection at 5 days, pre-treatment condition (RSV-infected HEp-2 cells; washed, n = 3-4): significantly more viable HEp-2 cells surviving RSV infection in a dose-dependent manner
- protection of RSV-infected HEp-2 cells from cell death at 5 days, continuous treatment condition (RSV-infected HEp-2 cells): significant protection of epithelial cells from cell death
- number of metabolically active uninfected HEp-2 cells after 5 days (HEp-2 cells [4]): did not affect the number of metabolically active HEp-2 cells
- TUNEL positive HEp-2 cells (HEp-2 cells [5]): 0.5–1.5%
- antiviral effect of virus and cell exposure to 2.5 µg/ml LL-37 (RSV viral particles; RSV MOI = 0.005 pre-mixed with 2.5 µg/ml LL-37 before immediate use, HEp-2, 24 hours): no significant effects
- antiviral effect of virus exposure to 25 µg/ml peptide followed by 1 in 10 dilution (cell exposure 2.5 µg/ml) (RSV viral particles; RSV MOI = 0.05 pre-mixed with 25 µg/ml, immediate 1:10 dilution, HEp-2 infected 2 hours, 24 hours, immunoplaque, n≥3): significant antiviral effects
- infectivity of supernatant at day 3 with LL-37 remaining in the media (continuous) (RSV [6]; 25 µg/ml LL-37 replaced after wash, 3 days, p<0.05): reducing infectivity up to day 3
- production of new infectious viral particles (RSV [6]; HEp-2, RSV with 25 µg/ml peptide 2 hours, washed, fresh media with or without peptide, supernatant infectivity on fresh HEp-2, p<0.001, n = 3): very substantially, fewer new infectious viral particles
- spread of infection beyond initially infected cells, LL-37 added after RSV infection (virus first) (RSV [7]; HEp-2, RSV MOI = 0.0005 2 hours, 25 µg/ml LL-37 1 hour): spread of infection beyond the cells initially infected was minimised
- spread of infection beyond initially infected cells, peptide added simultaneously with RSV (RSV [7]; HEp-2, RSV MOI = 0.0005, 25 µg/ml peptide 2 hours): spread of infection beyond the cells initially infected was minimised
